Reference: the kinase profiling compilation of Christmann-Franck et al. (2016)

What was measured:
Experiment in all cases: KINOMEscan competition binding
Conditions in all cases: compound 10.0 µM
PHKG1 (human) = PHKG1 (human) (UniProt Q16816)
ERBB4 (human) = ERBB4 (human) (UniProt Q15303)
ACVRL1 (human) = ACVRL1 (human) (UniProt P37023)
PRKCE (human) = PRKCE (human) (UniProt Q02156)
NTRK2 (human) = NTRK2 (human) (UniProt Q16620)
NEK2 (human) = NEK2 (human) (UniProt P51955)
MAP4K2 (human) = MAP4K2 (human) (UniProt Q12851)
WEE1 (human) = WEE1 (human) (UniProt P30291)
AKT1 (human) = AKT1 (human) (UniProt P31749)
CDK11B (human) = CDK11B (human) (UniProt P21127)
Sequence of CDK11B (human) (P21127 whole entry, looked up): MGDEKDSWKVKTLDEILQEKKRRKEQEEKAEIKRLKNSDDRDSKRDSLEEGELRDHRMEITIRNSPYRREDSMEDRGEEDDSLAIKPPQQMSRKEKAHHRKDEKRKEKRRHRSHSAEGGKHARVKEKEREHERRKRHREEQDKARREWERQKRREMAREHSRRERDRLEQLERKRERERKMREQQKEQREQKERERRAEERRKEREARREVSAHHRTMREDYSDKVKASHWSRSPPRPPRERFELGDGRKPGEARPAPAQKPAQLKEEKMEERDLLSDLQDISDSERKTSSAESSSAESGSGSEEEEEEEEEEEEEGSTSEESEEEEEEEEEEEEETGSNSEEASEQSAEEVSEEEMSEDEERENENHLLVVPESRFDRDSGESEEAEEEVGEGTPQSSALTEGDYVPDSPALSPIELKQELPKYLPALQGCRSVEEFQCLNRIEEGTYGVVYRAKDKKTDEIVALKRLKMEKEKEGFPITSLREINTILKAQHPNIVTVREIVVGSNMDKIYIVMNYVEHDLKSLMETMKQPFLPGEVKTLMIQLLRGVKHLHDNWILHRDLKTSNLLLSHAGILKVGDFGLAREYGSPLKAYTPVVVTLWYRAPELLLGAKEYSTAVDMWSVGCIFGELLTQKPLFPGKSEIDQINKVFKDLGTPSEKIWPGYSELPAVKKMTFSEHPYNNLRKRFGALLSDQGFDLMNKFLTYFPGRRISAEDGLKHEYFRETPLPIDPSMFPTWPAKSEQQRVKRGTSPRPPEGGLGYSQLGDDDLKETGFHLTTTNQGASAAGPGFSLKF

TEK (human) = TEK (human) (UniProt Q02763)
CAMK1D (human) = CAMK1D (human) (UniProt Q8IU85)
NUAK1 (human) = NUAK1 (human) (UniProt O60285)
[1] = tested on: KIT (human), P10721 [D816V]
DCLK2 (human) = DCLK2 (human) (UniProt Q8N568)
RET (human) = RET (human) (UniProt P07949)
ULK3 (human) = ULK3 (human) (UniProt Q6PHR2)
PRKG1 (human) = PRKG1 (human) (UniProt Q13976)
PIM3 (human) = PIM3 (human) (UniProt Q86V86)
DAPK1 (human) = DAPK1 (human) (UniProt P53355)
DCLK3 (human) = DCLK3 (human) (UniProt Q9C098)
RPS6KA2 KD1 (human) = RPS6KA2 KD1 (human) (UniProt Q15349)
LYN (human) = LYN (human) (UniProt P07948)
EPHB2 (human) = EPHB2 (human) (UniProt P29323)
STK10 (human) = STK10 (human) (UniProt O94804)
RPS6KA5 KD2 (human) = RPS6KA5 KD2 (human) (UniProt O75582)
Sequence of RPS6KA5 KD2 (human) (O75582 whole entry, looked up): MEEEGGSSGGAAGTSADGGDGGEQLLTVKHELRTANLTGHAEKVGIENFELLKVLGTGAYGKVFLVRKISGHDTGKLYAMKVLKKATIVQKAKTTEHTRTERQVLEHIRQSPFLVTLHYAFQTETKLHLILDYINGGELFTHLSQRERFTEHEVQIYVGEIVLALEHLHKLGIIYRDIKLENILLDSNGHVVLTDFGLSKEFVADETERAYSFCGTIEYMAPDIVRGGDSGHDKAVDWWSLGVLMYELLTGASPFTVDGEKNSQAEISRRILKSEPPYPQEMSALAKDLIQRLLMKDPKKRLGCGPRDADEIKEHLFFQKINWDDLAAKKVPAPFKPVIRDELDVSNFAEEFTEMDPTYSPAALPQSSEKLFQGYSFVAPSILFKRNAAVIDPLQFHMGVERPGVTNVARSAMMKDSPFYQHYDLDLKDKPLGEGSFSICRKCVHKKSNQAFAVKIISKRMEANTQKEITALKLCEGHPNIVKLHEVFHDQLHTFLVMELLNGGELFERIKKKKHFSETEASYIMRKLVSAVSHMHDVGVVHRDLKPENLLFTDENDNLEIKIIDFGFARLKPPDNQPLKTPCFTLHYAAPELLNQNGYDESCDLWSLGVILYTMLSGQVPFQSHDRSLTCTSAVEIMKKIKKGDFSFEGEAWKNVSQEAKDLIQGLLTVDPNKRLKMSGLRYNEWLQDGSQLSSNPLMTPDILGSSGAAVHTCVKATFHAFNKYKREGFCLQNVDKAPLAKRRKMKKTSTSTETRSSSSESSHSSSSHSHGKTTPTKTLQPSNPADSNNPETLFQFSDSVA

RPS6KA6 KD2 (human) = RPS6KA6 KD2 (human) (UniProt Q9UK32)
FLT1 (human) = FLT1 (human) (UniProt P17948)
Sequence of FLT1 (human) (P17948 whole entry, looked up): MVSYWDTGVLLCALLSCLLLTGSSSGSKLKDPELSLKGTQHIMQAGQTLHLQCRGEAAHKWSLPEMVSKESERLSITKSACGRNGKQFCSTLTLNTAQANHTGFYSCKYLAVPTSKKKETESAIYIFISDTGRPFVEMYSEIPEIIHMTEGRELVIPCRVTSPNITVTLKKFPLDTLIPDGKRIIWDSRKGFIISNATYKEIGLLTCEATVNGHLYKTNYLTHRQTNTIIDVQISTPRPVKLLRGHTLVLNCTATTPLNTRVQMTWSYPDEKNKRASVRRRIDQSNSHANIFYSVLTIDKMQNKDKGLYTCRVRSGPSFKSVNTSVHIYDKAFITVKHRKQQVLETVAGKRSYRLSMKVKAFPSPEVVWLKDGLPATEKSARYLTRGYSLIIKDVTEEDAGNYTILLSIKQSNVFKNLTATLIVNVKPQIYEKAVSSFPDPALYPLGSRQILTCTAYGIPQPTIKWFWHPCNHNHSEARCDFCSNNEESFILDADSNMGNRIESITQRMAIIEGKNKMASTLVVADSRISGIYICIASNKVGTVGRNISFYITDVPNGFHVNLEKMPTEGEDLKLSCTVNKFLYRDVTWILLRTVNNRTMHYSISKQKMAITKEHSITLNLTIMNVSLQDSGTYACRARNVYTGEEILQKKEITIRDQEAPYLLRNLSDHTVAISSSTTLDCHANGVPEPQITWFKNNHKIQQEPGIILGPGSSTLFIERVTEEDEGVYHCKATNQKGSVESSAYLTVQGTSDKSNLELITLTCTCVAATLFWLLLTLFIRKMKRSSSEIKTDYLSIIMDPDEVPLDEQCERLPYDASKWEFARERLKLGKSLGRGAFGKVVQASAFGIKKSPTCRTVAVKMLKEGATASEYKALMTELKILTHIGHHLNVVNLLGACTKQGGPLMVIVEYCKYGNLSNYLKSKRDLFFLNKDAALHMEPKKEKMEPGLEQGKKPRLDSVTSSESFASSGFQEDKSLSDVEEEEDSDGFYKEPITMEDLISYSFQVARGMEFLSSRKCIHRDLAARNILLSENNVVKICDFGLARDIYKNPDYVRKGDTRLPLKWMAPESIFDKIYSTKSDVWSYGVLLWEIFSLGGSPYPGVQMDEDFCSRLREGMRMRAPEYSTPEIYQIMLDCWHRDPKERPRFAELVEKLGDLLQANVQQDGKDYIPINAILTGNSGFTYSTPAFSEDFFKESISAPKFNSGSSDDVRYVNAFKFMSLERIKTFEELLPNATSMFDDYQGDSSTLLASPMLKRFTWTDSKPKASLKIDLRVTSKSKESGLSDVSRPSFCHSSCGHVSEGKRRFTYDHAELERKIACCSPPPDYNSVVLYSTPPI

MYLK4 (human) = MYLK4 (human) (UniProt Q86YV6)
CAMK4 (human) = CAMK4 (human) (UniProt Q16566)
MAPKAPK5 (human) = MAPKAPK5 (human) (UniProt Q8IW41)
CAMKK1 (human) = CAMKK1 (human) (UniProt Q8N5S9)
MAP3K12 (human) = MAP3K12 (human) (UniProt Q12852)
RIPK4 (human) = RIPK4 (human) (UniProt P57078)
MAPK15 (human) = MAPK15 (human) (UniProt Q8TD08)
Sequence of MAPK15 (human) (Q8TD08 whole entry, looked up): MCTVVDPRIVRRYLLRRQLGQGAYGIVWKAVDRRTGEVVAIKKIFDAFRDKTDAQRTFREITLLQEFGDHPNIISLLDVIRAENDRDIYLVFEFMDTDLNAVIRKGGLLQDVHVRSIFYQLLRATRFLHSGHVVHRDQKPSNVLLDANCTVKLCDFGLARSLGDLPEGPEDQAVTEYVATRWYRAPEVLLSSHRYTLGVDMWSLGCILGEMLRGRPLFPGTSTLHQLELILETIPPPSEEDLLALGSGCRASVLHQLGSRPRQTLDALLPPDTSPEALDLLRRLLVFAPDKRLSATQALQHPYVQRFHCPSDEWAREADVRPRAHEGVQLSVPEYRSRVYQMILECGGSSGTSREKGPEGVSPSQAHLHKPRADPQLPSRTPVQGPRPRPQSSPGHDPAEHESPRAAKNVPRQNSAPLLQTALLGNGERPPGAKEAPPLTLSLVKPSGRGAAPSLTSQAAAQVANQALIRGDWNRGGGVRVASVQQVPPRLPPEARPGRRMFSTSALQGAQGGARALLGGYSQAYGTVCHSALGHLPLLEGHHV

MAPKAPK2 (human) = MAPKAPK2 (human) (UniProt P49137)
PRKG2 (human) = PRKG2 (human) (UniProt Q13237)
EPHA6 (human) = EPHA6 (human) (UniProt Q9UF33)
ANKK1 (human) = ANKK1 (human) (UniProt Q8NFD2)
LATS2 (human) = LATS2 (human) (UniProt Q9NRM7)
Sequence of LATS2 (human) (Q9NRM7 whole entry, looked up): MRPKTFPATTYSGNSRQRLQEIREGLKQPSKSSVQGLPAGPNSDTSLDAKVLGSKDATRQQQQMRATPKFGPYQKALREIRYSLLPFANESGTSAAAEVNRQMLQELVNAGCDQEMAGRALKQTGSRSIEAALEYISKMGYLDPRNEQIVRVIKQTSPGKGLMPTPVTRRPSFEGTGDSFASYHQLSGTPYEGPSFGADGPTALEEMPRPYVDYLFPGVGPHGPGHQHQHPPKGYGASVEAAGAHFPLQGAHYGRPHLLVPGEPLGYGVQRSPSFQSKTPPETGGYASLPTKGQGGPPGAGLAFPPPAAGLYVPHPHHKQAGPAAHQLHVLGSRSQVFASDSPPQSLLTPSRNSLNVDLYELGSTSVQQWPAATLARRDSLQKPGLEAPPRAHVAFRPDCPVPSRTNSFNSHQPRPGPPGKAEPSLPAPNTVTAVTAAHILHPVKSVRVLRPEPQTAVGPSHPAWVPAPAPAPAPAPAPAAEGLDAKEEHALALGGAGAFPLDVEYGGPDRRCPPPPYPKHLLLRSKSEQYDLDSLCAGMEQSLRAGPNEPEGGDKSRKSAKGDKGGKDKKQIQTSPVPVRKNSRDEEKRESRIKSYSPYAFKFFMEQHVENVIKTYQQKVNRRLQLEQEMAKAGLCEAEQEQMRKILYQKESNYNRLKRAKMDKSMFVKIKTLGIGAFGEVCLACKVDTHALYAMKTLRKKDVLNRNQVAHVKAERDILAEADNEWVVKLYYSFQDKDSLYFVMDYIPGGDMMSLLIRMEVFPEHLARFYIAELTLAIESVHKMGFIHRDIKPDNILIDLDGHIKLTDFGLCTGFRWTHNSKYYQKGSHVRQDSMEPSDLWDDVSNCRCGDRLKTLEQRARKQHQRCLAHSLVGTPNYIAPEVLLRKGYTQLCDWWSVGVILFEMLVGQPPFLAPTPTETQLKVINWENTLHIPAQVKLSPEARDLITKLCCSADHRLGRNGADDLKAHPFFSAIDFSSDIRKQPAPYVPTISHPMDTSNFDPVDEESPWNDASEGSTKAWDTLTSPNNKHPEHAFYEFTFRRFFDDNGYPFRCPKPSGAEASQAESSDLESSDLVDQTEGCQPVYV

In the case of `O=C(NC1CC1)c1cccc(-c2ccc3c(NC(=O)C4CC4)n[nH]c3c2)c1`, the kinase still bound, per cent of control (PHKG1 (human)) is reported as 76%, the kinase still bound, per cent of control (ERBB4 (human)) is reported as 95% and the kinase still bound, per cent of control (ACVRL1 (human)) is reported as 100%. The kinase still bound, per cent of control (PRKCE (human)) was 100%, the kinase still bound, per cent of control (NTRK2 (human)) was 61% and the kinase still bound, per cent of control (NEK2 (human)) was 80%. The kinase still bound, per cent of control (MAP4K2 (human)) was 99%, the kinase still bound, per cent of control (WEE1 (human)) was 84% and the kinase still bound, per cent of control (AKT1 (human)) was 100%. The kinase still bound, per cent of control (CDK11B (human)) was 97%, the kinase still bound, per cent of control (TEK (human)) was 54% and the kinase still bound, per cent of control (CAMK1D (human)) was 100%. The kinase still bound, per cent of control (NUAK1 (human)) was 100%, the kinase still bound, per cent of control [1] was 97% and the kinase still bound, per cent of control (DCLK2 (human)) was 100%. The kinase still bound, per cent of control (RET (human)) was 86%, the kinase still bound, per cent of control (ULK3 (human)) was 13% and the kinase still bound, per cent of control (PRKG1 (human)) was 100%. The kinase still bound, per cent of control (PIM3 (human)) was 70%, the kinase still bound, per cent of control (DAPK1 (human)) was 91% and the kinase still bound, per cent of control (DCLK3 (human)) was 100%. The kinase still bound, per cent of control (RPS6KA2 KD1 (human)) was 96%, the kinase still bound, per cent of control (LYN (human)) was 83% and the kinase still bound, per cent of control (EPHB2 (human)) was 98%. The kinase still bound, per cent of control (STK10 (human)) was 57%, the kinase still bound, per cent of control (RPS6KA5 KD2 (human)) was 100% and the kinase still bound, per cent of control (RPS6KA6 KD2 (human)) was 60%. For the same molecule, the kinase still bound, per cent of control (FLT1 (human)) was 100%, the kinase still bound, per cent of control (MYLK4 (human)) was 42% and the kinase still bound, per cent of control (CAMK4 (human)) was 100%. The kinase still bound, per cent of control (MAPKAPK5 (human)) was 99%, the kinase still bound, per cent of control (CAMKK1 (human)) was 37% and the kinase still bound, per cent of control (MAP3K12 (human)) was 30%. For the same molecule, the kinase still bound, per cent of control (RIPK4 (human)) was 84%, the kinase still bound, per cent of control (MAPK15 (human)) was 2.9% and the kinase still bound, per cent of control (MAPKAPK2 (human)) was 100%. For the same molecule, the kinase still bound, per cent of control (PRKG2 (human)) was 72%, the kinase still bound, per cent of control (EPHA6 (human)) was 100% and the kinase still bound, per cent of control (ANKK1 (human)) was 8%. It also gave a kinase still bound, per cent of control (LATS2 (human)) of 85%.
